≈ marks a conversion by molar mass, not a printed value. Like-named read-outs stand apart in the source and are kept apart here.
Experiments:
Assay in all cases: in vitro antibacterial activity, standard agar dilution method
Assay type in all cases: cell-based
[1] = system: Pseudomonas aeruginosa NR 2950; conditions: NR2950, aerobic, read-out: minimum inhibitory concentration (MIC)
[2] = system: Salmonella typhimurium IFO 12529; conditions: Salmonella enterica, aerobic, read-out: minimum inhibitory concentration (MIC)
[3] = system: Bacillus subtilis PCI 219; conditions: PCI219, aerobic, read-out: minimum inhibitory concentration (MIC)
[4] = system: Bordetella bronchiseptica ATCC 4617; conditions: ATCC4617, aerobic, read-out: minimum inhibitory concentration (MIC)
[5] = system: Proteus rettgeri ATCC 14505; conditions: Providencia rettgeri, ATCC14505, aerobic, read-out: minimum inhibitory concentration (MIC)
[6] = system: Staphylococcus epidermidis IFO 12993; conditions: IFO12993, aerobic, read-out: minimum inhibitory concentration (MIC)
[7] = system: Citrobacter freundii IFO 12681; conditions: IFO12681, aerobic, read-out: minimum inhibitory concentration (MIC)
[8] = system: Serratia marcescens IFO 12648; conditions: IFO12648, aerobic, read-out: minimum inhibitory concentration (MIC)
[9] = system: Enterobacter cloacae NR 2946; conditions: NR2946, aerobic, read-out: minimum inhibitory concentration (MIC)
[10] = system: Staphylococcus aureus Smith; conditions: read-out: minimum inhibitory concentration (MIC)
[11] = system: Escherichia coli NR 2630; conditions: NR2630; Escherichia coli NR 2630; aerobic; agar dilution; read-out: minimum inhibitory concentration (MIC)
[12] = system: Pseudomonas stutzeri IFO 12695; conditions: Stutzerimonas stutzeri, IFO12695, aerobic, read-out: minimum inhibitory concentration (MIC)
[13] = system: Staphylococcus aureus NR 2855
[14] = system: Staphylococcus epidermidis NR 2942; conditions: NR2942, aerobic, read-out: minimum inhibitory concentration (MIC)
[15] = system: Klebsiella pneumoniae FDA PCI 602; conditions: FDAPCI602, aerobic, read-out: minimum inhibitory concentration (MIC)
[16] = system: Proteus vulgaris OX19 ATCC 6898; conditions: ATCC6898, aerobic, read-out: minimum inhibitory concentration (MIC)
[17] = system: Enterobacter aerogenes NR 2945; conditions: Klebsiella aerogenes, NR2945, aerobic, read-out: minimum inhibitory concentration (MIC)
[18] = system: Escherichia coli NIHJ JC-2; conditions: NIHJJC2, aerobic, read-out: minimum inhibitory concentration (MIC)
[19] = system: Enterococcus faecalis NR 2943; conditions: NR2943, aerobic, read-out: minimum inhibitory concentration (MIC)
[20] = system: Alcaligenes faecalis IFO 13111; conditions: IFO13111, aerobic, read-out: minimum inhibitory concentration (MIC)
[21] = system: Pseudomonas aeruginosa A3; conditions: aerobic, read-out: minimum inhibitory concentration (MIC)
[22] = system: Staphylococcus aureus FDA 209P JC-1; conditions: FDA209P, read-out: minimum inhibitory concentration (MIC)
[23] = Staphylococcus aureus Smith, aerobic, agar dilution
[24] = NR2855, Staphylococcus aureus NR 2855, aerobic, agar dilution, read-out: minimum inhibitory concentration (MIC)
[25] = Staphylococcus aureus FDA 209P JC-1, aerobic, agar dilution

| Compound | MIC [1] | MIC [2] | MIC [3] | MIC [4] | MIC [5] | MIC [6] | MIC [7] | MIC [8] | MIC [9] | MIC [11] | MIC [12] | MIC [13, 24] | MIC [14] | MIC [15] | MIC [16] | MIC [17] | MIC [18] | MIC [19] | MIC [20] | MIC [21] | further results |
| --- | --- | --- | --- | --- | --- | --- | --- | --- | --- | --- | --- | --- | --- | --- | --- | --- | --- | --- | --- | --- | --- |
| COC1CCN(c2c(F)cc3c(=O)c(C(=O)O)cn4c3c2OCN4C)CC1 [Example 38, 9-fluoro-10-(4-methoxy-1-piperidyl)-3-methyl-7-oxo-2,3-dihydro-7H-pyrido[3,2,1-ij]-1,3,4-benzoxadiazine-6-carboxylic acid] | 50 µg/mL (≈ 132 µM) | 6.25 µg/mL (≈ 16.6 µM) | ≤ 0.0008 µg/mL | 6.25 µg/mL (≈ 16.6 µM) | 25 µg/mL (≈ 66.2 µM) | 0.39 µg/mL (≈ 1.03 µM) | 6.25 µg/mL (≈ 16.6 µM) | 12.5 µg/mL (≈ 33.1 µM) | 6.25 µg/mL (≈ 16.6 µM) | 0.39 µg/mL (≈ 1.03 µM) | 6.25 µg/mL (≈ 16.6 µM) | 0.2 µg/mL (≈ 0.53 µM) | 0.39 µg/mL (≈ 1.03 µM) | 25 µg/mL (≈ 66.2 µM) | 3.13 µg/mL (≈ 8.29 µM) | 3.13 µg/mL (≈ 8.29 µM) | 6.25 µg/mL (≈ 16.6 µM) | 12.5 µg/mL (≈ 33.1 µM) | 6.25 µg/mL (≈ 16.6 µM) | 25 µg/mL (≈ 66.2 µM) | MIC [10, 23]: 0.1 µg/mL (≈ 0.265 µM); MIC [22, 25]: 0.39 µg/mL (≈ 1.03 µM) |
| CCN1CCN(c2c(F)cc3c(=O)c(C(=O)O)cn4c3c2OCN4C)CC1 [Example 42] | 3.13 µg/mL (≈ 8.32 µM) | 0.025 µg/mL (≈ 0.0664 µM) | 0.05 µg/mL (≈ 0.133 µM) | 0.39 µg/mL (≈ 1.04 µM) | 0.39 µg/mL (≈ 1.04 µM) | 0.39 µg/mL (≈ 1.04 µM) | 0.05 µg/mL (≈ 0.133 µM) | 0.1 µg/mL (≈ 0.266 µM) | 0.05 µg/mL (≈ 0.133 µM) | 0.025 µg/mL (≈ 0.0664 µM) | 0.1 µg/mL (≈ 0.266 µM) | 0.39 µg/mL (≈ 1.04 µM) | 0.39 µg/mL (≈ 1.04 µM) | 0.39 µg/mL (≈ 1.04 µM) | 0.025 µg/mL (≈ 0.0664 µM) | 0.025 µg/mL (≈ 0.0664 µM) | 0.05 µg/mL (≈ 0.133 µM) | 6.25 µg/mL (≈ 16.6 µM) | 1.56 µg/mL (≈ 4.14 µM) | 0.39 µg/mL (≈ 1.04 µM) | MIC [10, 23]: 0.39 µg/mL (≈ 1.04 µM); MIC [22, 25]: 0.39 µg/mL (≈ 1.04 µM) |
| CN1COc2c(N3CCN(CCF)CC3)c(F)cc3c(=O)c(C(=O)O)cn1c23 [Example 44] | 6.25 µg/mL (≈ 15.8 µM) | 0.2 µg/mL (≈ 0.507 µM) | 0.05 µg/mL (≈ 0.127 µM) | 0.39 µg/mL (≈ 0.989 µM) | 1.56 µg/mL (≈ 3.96 µM) | 0.78 µg/mL (≈ 1.98 µM) | 0.2 µg/mL (≈ 0.507 µM) | 0.39 µg/mL (≈ 0.989 µM) | 0.2 µg/mL (≈ 0.507 µM) | 0.05 µg/mL (≈ 0.127 µM) | 0.2 µg/mL (≈ 0.507 µM) | 0.39 µg/mL (≈ 0.989 µM) | 0.39 µg/mL (≈ 0.989 µM) | 0.39 µg/mL (≈ 0.989 µM) | 0.1 µg/mL (≈ 0.254 µM) | 0.1 µg/mL (≈ 0.254 µM) | 0.2 µg/mL (≈ 0.507 µM) | 12.5 µg/mL (≈ 31.7 µM) | 1.56 µg/mL (≈ 3.96 µM) | 0.78 µg/mL (≈ 1.98 µM) | MIC [10, 23]: 0.39 µg/mL (≈ 0.989 µM); MIC [22, 25]: 0.78 µg/mL (≈ 1.98 µM) |
| CN1COc2c(N3CCN(CC(=O)O)CC3)c(F)cc3c(=O)c(C(=O)O)cn1c23 [Example 45] | 6.25 µg/mL (≈ 15.4 µM) | 0.1 µg/mL (≈ 0.246 µM) | 0.39 µg/mL (≈ 0.96 µM) | 12.5 µg/mL (≈ 30.8 µM) | 0.78 µg/mL (≈ 1.92 µM) | 3.13 µg/mL (≈ 7.7 µM) | 0.1 µg/mL (≈ 0.246 µM) | 0.78 µg/mL (≈ 1.92 µM) | 0.2 µg/mL (≈ 0.492 µM) | 0.1 µg/mL (≈ 0.246 µM) | 0.05 µg/mL (≈ 0.123 µM) | 3.13 µg/mL (≈ 7.7 µM) | 3.13 µg/mL (≈ 7.7 µM) | 0.39 µg/mL (≈ 0.96 µM) | 0.1 µg/mL (≈ 0.246 µM) | 0.05 µg/mL (≈ 0.123 µM) | 0.2 µg/mL (≈ 0.492 µM) | 50 µg/mL (≈ 123 µM) | 12.5 µg/mL (≈ 30.8 µM) | 0.78 µg/mL (≈ 1.92 µM) | MIC [10, 23]: 0.78 µg/mL (≈ 1.92 µM); MIC [22, 25]: 1.56 µg/mL (≈ 3.84 µM) |
| CCN(C)CC1CCN(c2c(F)cc3c(=O)c(C(=O)O)cn4c3c2OCN4C)C1 (stereo not shown) [Example 48, 10-[3-[(ethylmethylamino)methyl]-1-pyrrolidinyl]-9-fluoro-3-methyl-7-oxo-2,3-dihydro-7H-pyrido-[3,2,1-ij]-1,3,4-benzoxadiazine-6-carboxylic acid] | 50 µg/mL (≈ 124 µM) | 0.39 µg/mL (≈ 0.964 µM) | 0.05 µg/mL (≈ 0.124 µM) | 6.25 µg/mL (≈ 15.5 µM) | 3.13 µg/mL (≈ 7.74 µM) | 0.39 µg/mL (≈ 0.964 µM) | 0.39 µg/mL (≈ 0.964 µM) | 1.56 µg/mL (≈ 3.86 µM) | 0.39 µg/mL (≈ 0.964 µM) | 0.1 µg/mL (≈ 0.247 µM) | 1.56 µg/mL (≈ 3.86 µM) |  | 0.78 µg/mL (≈ 1.93 µM) | 1.56 µg/mL (≈ 3.86 µM) | 0.39 µg/mL (≈ 0.964 µM) | 0.39 µg/mL (≈ 0.964 µM) | 0.39 µg/mL (≈ 0.964 µM) | 6.25 µg/mL (≈ 15.5 µM) | 3.13 µg/mL (≈ 7.74 µM) | 3.13 µg/mL (≈ 7.74 µM) | MIC [10, 23]: 0.2 µg/mL (≈ 0.495 µM); MIC ([13]; Staphylococcus aureus, NR2855, read-out: minimum inhibitory concentration (MIC)): 0.39 µg/mL (≈ 0.964 µM); MIC ([22]; Staphylococcus aureus): 0.39 µg/mL (≈ 0.964 µM) |
| CC(=O)CCN1CCN(c2c(F)cc3c(=O)c(C(=O)O)cn4c3c2OCN4C)CC1 [Example 51, 9-fluoro-3-methyl-7-oxo-10-[4-(3-oxo-n-butyl)-1-piperazinyl]-2,3-dihydro-7H-pyrido[3,2,1-ij]-1,3,4-benzoxadiazine-6-carboxylic acid] | 1.56 µg/mL (≈ 3.73 µM) | 0.025 µg/mL (≈ 0.0597 µM) | 0.1 µg/mL (≈ 0.239 µM) | 1.56 µg/mL (≈ 3.73 µM) | 0.2 µg/mL (≈ 0.478 µM) | 0.78 µg/mL (≈ 1.86 µM) | 0.025 µg/mL (≈ 0.0597 µM) | 0.1 µg/mL (≈ 0.239 µM) | 0.05 µg/mL (≈ 0.119 µM) | 0.025 µg/mL (≈ 0.0597 µM) | 0.05 µg/mL (≈ 0.119 µM) | 1.56 µg/mL (≈ 3.73 µM) | 0.78 µg/mL (≈ 1.86 µM) | 0.2 µg/mL (≈ 0.478 µM) | 0.025 µg/mL (≈ 0.0597 µM) | 0.025 µg/mL (≈ 0.0597 µM) | 0.1 µg/mL (≈ 0.239 µM) | 12.5 µg/mL (≈ 29.9 µM) | 3.13 µg/mL (≈ 7.48 µM) | 0.1 µg/mL (≈ 0.239 µM) | MIC ([10]; Staphylococcus aureus): 0.39 µg/mL (≈ 0.932 µM); MIC [22, 25]: 0.2 µg/mL (≈ 0.478 µM) |
| CN1COc2c(N3CCN(CS(=O)(=O)O)CC3)c(F)cc3c(=O)c(C(=O)O)cn1c23 [Example 52, disodium 9-fluoro-3-methyl-7-oxo-10-[4-(sulfonatomethyl)-1-piperazinyl]-2,3-dihydro-7H-pyrido-[3,2,1-ij]-1,3,4-benzoxadiazine-6-carboxylate] | 1.56 µg/mL | 0.025 µg/mL | 0.2 µg/mL | 6.25 µg/mL | 0.2 µg/mL | 1.56 µg/mL | 0.025 µg/mL | 0.2 µg/mL | 0.05 µg/mL | 0.025 µg/mL | 0.05 µg/mL | 3.13 µg/mL | 1.56 µg/mL | 0.2 µg/mL | 0.025 µg/mL | 0.025 µg/mL | 0.05 µg/mL | 25 µg/mL | 12.5 µg/mL | 0.2 µg/mL | MIC ([10]; Staphylococcus aureus): 0.39 µg/mL; MIC ([22]; Staphylococcus aureus): 0.39 µg/mL |

From patent US4864023A, “Pyrido(3,2,1-IJ)-1,3,4-benzoxadiazine derivatives” (priority 1988, dated 1989)
